Reference: the CheMixHub viscosity set

Assay: xn = mol fraction of the nth substance listed

C[Si]1(C)O[Si](C)(C)O[Si](C)(C)O[Si](C)(C)O1 + CCCCCCCCCCCC
viscosity [mPa·s], 103 kPa
Conditions | 298.15 K | 308.15 K | 318.15 K
x1 = 0.05 | 1.314 | 1.107 | 0.951
x1 = 0.1 | 1.32 | 1.113 | 0.962
x1 = 0.15 | 1.342 | 1.132 | 0.972
x1 = 0.2 | 1.352 | 1.141 | 0.982
x1 = 0.25 | 1.366 | 1.153 | 0.991
x1 = 0.3 | 1.384 | 1.167 | 1
x1 = 0.35 | 1.402 | 1.183 | 1.012
x1 = 0.3999 | 1.431 | 1.202 | 1.028
x1 = 0.45 | 1.454 | 1.225 | 1.048
x1 = 0.5 | 1.489 | 1.251 | 1.068
x1 = 0.5501 | 1.517 | 1.278 | 1.089
x1 = 0.6 | 1.554 | 1.309 | 1.114
x1 = 0.65 | 1.6 | 1.345 | 1.142
x1 = 0.6999 | 1.643 | 1.38 | 1.173
x1 = 0.75 | 1.7 | 1.426 | 1.209
x1 = 0.7999 | 1.759 | 1.473 | 1.248
x1 = 0.85 | 1.828 | 1.523 | 1.292
x1 = 0.9 | 1.91 | 1.588 | 1.343
x1 = 0.95 | 1.985 | 1.652 | 1.39

C1CCC2=[NH+]CCCN2CC1.c1c[n-]cn1 + O
Conditions | viscosity [mPa·s]
298.15 K, 100 kPa, x1 = 0.2994 | 42.65

ClCCl + CO
303.15 K, 101.3 kPa
Conditions | viscosity [mPa·s]
x1 = 0.0146 | 0.5071
x2 = 0.0752 | 0.3905
x2 = 0.1326 | 0.3907
x2 = 0.1509 | 0.3917
x2 = 0.2315 | 0.3988
x2 = 0.3029 | 0.4078
x2 = 0.374 | 0.42
x2 = 0.407 | 0.4262
x2 = 0.5161 | 0.4475
x2 = 0.6525 | 0.4738
x2 = 0.7656 | 0.4932
x2 = 0.8581 | 0.5043
x2 = 0.9182 | 0.5081
x2 = 0.9595 | 0.5087

ClCCCl + C1CCOC1
303.15 K, 101 kPa
Conditions | viscosity [mPa·s]
x2 = 0.0815 | 0.7038
x2 = 0.1436 | 0.6852
x2 = 0.2414 | 0.6571
x2 = 0.3055 | 0.6394
x2 = 0.4137 | 0.6105
x2 = 0.5015 | 0.5879
x2 = 0.6095 | 0.5606
x2 = 0.7289 | 0.5307
x2 = 0.8142 | 0.5097
x2 = 0.9176 | 0.485

CCC(C)Br (stereo not drawn) + CC(C)CO
viscosity [mPa·s], 101.3 kPa
Conditions | 298.15 K | 313.15 K
x1 = 0.0474 | 2.895 | 1.857
x1 = 0.102 | 2.431 | 1.596
x1 = 0.203 | 1.813 | 1.244
x1 = 0.3032 | 1.407 | 1.007
x1 = 0.4043 | 1.126 | 0.8382
x1 = 0.5066 | 0.9316 | 0.7176
x1 = 0.6053 | 0.7983 | 0.6315
x1 = 0.7043 | 0.7016 | 0.5696
x1 = 0.803 | 0.6311 | 0.5215
x1 = 0.8948 | 0.5854 | 0.4887
x1 = 0.9318 | 0.5716 | 0.4796

ClCCl + CCCCC
298.15 K, 101 kPa
Conditions | viscosity [mPa·s]
x2 = 0.05 | 0.403
x2 = 0.1 | 0.384
x2 = 0.1023 | 0.379
x2 = 0.15 | 0.366
x2 = 0.1992 | 0.345
x2 = 0.2 | 0.348
x2 = 0.25 | 0.332
x2 = 0.3 | 0.317
x2 = 0.3043 | 0.314
x2 = 0.35 | 0.303
x2 = 0.4 | 0.29
x2 = 0.4032 | 0.29
x2 = 0.45 | 0.28
x2 = 0.5 | 0.27
x2 = 0.5097 | 0.269
x2 = 0.55 | 0.262
x2 = 0.6 | 0.255
x2 = 0.603 | 0.254
x2 = 0.65 | 0.248
x2 = 0.6984 | 0.242
x2 = 0.7 | 0.242
x2 = 0.75 | 0.237
x2 = 0.7991 | 0.231
x2 = 0.8 | 0.232
x2 = 0.85 | 0.227
x2 = 0.8858 | 0.224
x2 = 0.9 | 0.222
x2 = 0.9189 | 0.221
x2 = 0.95 | 0.218

ClCCl + CCCCCC
298 K, 101 kPa
Conditions | viscosity [mPa·s]
x2 = 0.1331 | 0.386
x2 = 0.2381 | 0.367
x2 = 0.3208 | 0.354
x2 = 0.3873 | 0.346
x2 = 0.4407 | 0.34
x2 = 0.4419 | 0.34
x2 = 0.4746 | 0.335
x2 = 0.4862 | 0.335
x2 = 0.5144 | 0.333
x2 = 0.5244 | 0.332
x2 = 0.5599 | 0.329
x2 = 0.6138 | 0.324
x2 = 0.6791 | 0.32
x2 = 0.7601 | 0.314
x2 = 0.8633 | 0.308

ClCCl + COCCOCCOC
298.15 K, 101.33 kPa
Conditions | viscosity [mPa·s]
x2 = 0.097 | 0.546
x2 = 0.1505 | 0.593
x2 = 0.2008 | 0.636
x2 = 0.2942 | 0.711
x2 = 0.3997 | 0.79
x2 = 0.4508 | 0.817
x2 = 0.5008 | 0.843
x2 = 0.5555 | 0.87
x2 = 0.598 | 0.891
x2 = 0.6948 | 0.921
x2 = 0.7543 | 0.938
x2 = 0.8003 | 0.955
x2 = 0.8967 | 0.975
x2 = 0.9205 | 0.98

CCC[N+](C)(C)C.O=S(=O)([N-]S(=O)(=O)C(F)(F)F)C(F)(F)F + CCC[N+]1(C)CCCCC1.O=S(=O)([N-]S(=O)(=O)C(F)(F)F)C(F)(F)F
101.3 kPa
Conditions | viscosity [mPa·s]
298.15 K, x1 = 0.8 | 88.1
303.15 K, x1 = 0.8 | 69.7
308.15 K, x1 = 0.2 | 78.3
308.15 K, x1 = 0.6 | 63.6
308.15 K, x1 = 0.8 | 56.2
313.15 K, x1 = 0.2 | 62.4
313.15 K, x1 = 0.4 | 56.9
313.15 K, x1 = 0.6 | 51.5
318.15 K, x1 = 0.2 | 50.5

CCNc1ccccc1 + CCCCCCO
viscosity [mPa·s], 101 kPa
Conditions | 303.15 K | 308.15 K | 313.15 K
x1 = 0.0815 | 3.513 | 3.35 | 3.189
x1 = 0.1812 | 3.243 | 3.069 | 2.9
x1 = 0.2501 | 3.07 | 2.889 | 2.719
x1 = 0.3121 | 2.922 | 2.736 | 2.565
x1 = 0.3956 | 2.737 | 2.546 | 2.374
x1 = 0.4652 | 2.594 | 2.399 | 2.227
x1 = 0.5285 | 2.47 | 2.273 | 2.101
x1 = 0.6124 | 2.318 | 2.119 | 1.947
x1 = 0.6758 | 2.21 | 2.01 | 1.84
x1 = 0.7415 | 2.105 | 1.904 | 1.735
x1 = 0.8012 | 2.014 | 1.813 | 1.647
x1 = 0.8652 | 1.922 | 1.722 | 1.557
x1 = 0.9114 | 1.857 | 1.659 | 1.496

ClCCCl + CCCCO
viscosity [mPa·s], 101 kPa
Conditions | x2 = 0.0969 | x2 = 0.2052 | x2 = 0.3178 | x2 = 0.4683 | x2 = 0.5618 | x2 = 0.6768 | x2 = 0.856
303.15 K | 0.7121 | 0.7449 | 0.8081 | 0.9418 | 1.062 | 1.272 | 1.744
313.15 K | 0.6205 | 0.6427 | 0.692 | 0.7892 | 0.8734 | 1.036 | 1.378
323.15 K | 0.5584 | 0.571 | 0.6061 | 0.6791 | 0.7447 | 0.8711 | 1.123

ClCCCl + CCCO
101 kPa
Conditions | viscosity [mPa·s]
293.15 K, x2 = 0.9052 | 1.795
298.15 K, x2 = 0.614 | 1.035
303.15 K, x2 = 0.1182 | 0.6969
303.15 K, x2 = 0.2163 | 0.6888
303.15 K, x2 = 0.5579 | 0.9007
303.15 K, x2 = 0.6721 | 1.034
303.15 K, x2 = 0.836 | 1.328
313.15 K, x2 = 0.1182 | 0.6089
313.15 K, x2 = 0.2163 | 0.6167
313.15 K, x2 = 0.326 | 0.6293
313.15 K, x2 = 0.5579 | 0.7563
313.15 K, x2 = 0.6721 | 0.8514
313.15 K, x2 = 0.836 | 1.071
323.15 K, x2 = 0.1182 | 0.5483
323.15 K, x2 = 0.2163 | 0.5488
323.15 K, x2 = 0.326 | 0.5542
323.15 K, x2 = 0.5579 | 0.6484
323.15 K, x2 = 0.6721 | 0.721
323.15 K, x2 = 0.836 | 0.8872

CC[NH+](C)CC.CS(=O)(=O)[O-] + O
Conditions | viscosity [mPa·s]
318.15 K, 100 kPa, x1 = 0.4263 | 15.65

CCOC(N)=O + c1ccncc1
298.15 K, 101 kPa
Conditions | viscosity [mPa·s]
x1 = 0.0815 | 1.07
x1 = 0.1351 | 1.202

N=C(N)NCCC[C@H](N)C(=O)[O-].[Na+] + O
viscosity [mPa·s], 101 kPa
Conditions | x1 = 0.004484 | x1 = 0.008927 | x1 = 0.01333 | x1 = 0.0177 | x1 = 0.02202 | x1 = 0.02631
293.15 K | 1.199 | 1.453 | 1.745 | 2.107 | 2.501 | 2.956
303.15 K | 0.963 | 1.149 | 1.361 | 1.615 | 1.907 | 2.248
313.15 K | 0.78 | 0.925 | 1.087 | 1.278 | 1.493 | 1.744
323.15 K | 0.645 | 0.759 | 0.881 | 1.033 | 1.201 | 1.384

ClCCCl + CC#N
101.33 kPa
Conditions | viscosity [mPa·s]
298 K, x2 = 0.0717 | 0.754
298 K, x2 = 0.1909 | 0.698
298 K, x2 = 0.2938 | 0.65
298 K, x2 = 0.3884 | 0.607
298 K, x2 = 0.4948 | 0.558
298 K, x2 = 0.5896 | 0.515
298 K, x2 = 0.6957 | 0.468
298 K, x2 = 0.7981 | 0.425
298 K, x2 = 0.8955 | 0.385
303.15 K, x2 = 0.113 | 0.674
303.15 K, x2 = 0.1744 | 0.6458
303.15 K, x2 = 0.2643 | 0.6069
303.15 K, x2 = 0.3563 | 0.5679
303.15 K, x2 = 0.4072 | 0.5471
303.15 K, x2 = 0.543 | 0.4921
303.15 K, x2 = 0.6825 | 0.4372
303.15 K, x2 = 0.8073 | 0.3903
303.15 K, x2 = 0.8792 | 0.3647
303.15 K, x2 = 0.9181 | 0.3513

CC(=O)O + CC#N
viscosity [mPa·s], 101 kPa
Conditions | x1 = 0.0924 | x1 = 0.1864 | x1 = 0.282 | x1 = 0.3793 | x1 = 0.4782 | x1 = 0.5789 | x1 = 0.6814 | x1 = 0.7857 | x1 = 0.8919
298.15 K | 0.3742 | 0.4162 | 0.4785 | 0.558 | 0.6509 | 0.7533 | 0.8608 | 0.9682 | 1.07
308.15 K | 0.3267 | 0.3622 | 0.4177 | 0.4891 | 0.5719 | 0.6612 | 0.7513 | 0.8362 | 0.9088
318.15 K | 0.2808 | 0.3168 | 0.3759 | 0.4515 | 0.5363 | 0.6224 | 0.7005 | 0.7609 | 0.7925
